Results from patent publication US11220534B2, “Treatment of neurological diseases” (Lancaster University Business Enterprises Limited, priority 2016, dated 2022).
Where no end group is shown, it is not given here. [ ]: non-standard residue; d: D form. Aib = CC(C)(N)C(=O)O

Assays:
[1] = system: APP/PS1 transgenic mice; assay: Immunohistochemical measurement of synaptic densities (synaptophysin) in the cortex of APP/PS1 transgenic mice; assay type: in vivo; conditions: 10 nmol/kg i.p. once daily for 8 weeks, FIG. 2, N=6 per group
Text: Animal models have been developed to test novel drugs. A standard model for Alzheimer's disease is transgenic mice that express human mutated genes for amyloid production that are known to induce Alzheimer's disease in humans. These APP/PS1 transgenic mice recapitulate some of the symptoms of Alzheimer's disease such as the aggregation of amyloid in the brain, memory loss and the loss of synapses (Radde et al., 2006).
The APP/PS1 mice express human Swedish mutated APP and human mutated presenilin-1 which induce Alzheimer's Disease in humans.
The dose of peptide tested was 10 nmol/kg body weight. The peptides were administered by a once-daily intraperitoneal injection for 8 weeks. Saline injections were administered as a control. Six animals per group were injected with a peptide or a saline control.
Animals (6 per group) were perfused transcardially with 30 ml of ice-cold PBS and 30 ml of ice-cold 4% paraformaldehyde to postfix the brain. The brains were removed and placed in fresh 30% sucrose solution in PBS to cryoprotect tissue and cut at a thickness of 40 μm on a cryostat. Sections were chosen according to stereological rules, with the first section taken at random and every 5th section afterwards. Between 7 and 13 sections were analysed per brain. […]

[2] = system: APP/PS1 mice; assay: In vivo hippocampal measurements of L-LTP in AD mice; conditions: N=6 per group
Text: Materials and methods in Example 2 are the same as Example 1 except when stated. Reagents used in Example 2 only include antibodies to p-PI3Kp85, PI3Kp85, p-Akt (ser473), Akt, p-GSK3β ([…]), and GSK3β from Abcam, Inc. Cambridge, UK. The antibody to p-tau (AT8) from Thermo Scientific USA. Mouse Anti-β-actin, Anti-Rabbit IgG, Anti-mouse IgG, CY3-Anti-mouse IgG, RIPA Lysate, BCA Protein Assay Kit, DAPI staining solution and Anti-fluorescence decay agent from Boster (Wuhan, China). Mice were anesthetized with urethane (Sigma, UK, 1.5 g/kg, i.p.) and placed in a stereotaxic apparatus (RWD Life Science, China) for L-LTP recording. Cut off the scalp and expose the skull, small holes were drilled on one side of the skull (2.0 mm posterior to bregma and 1.5 mm lateral to the midline). […] Baseline fEPSPs were elicited by test stimuli at an interval of 30 seconds and 30 minutes fEPSPs were recorded to observe whether the underlying synaptic transmission is affected. […] The change in PPF ratio, calculated by dividing the slope of the second fEPSP by the slope of the first fEPSP, is viewed to be related with the changes in neurotransmitter release from presynaptic terminals. […] The fEPSPs were recorded for 180 minutes after HFS. All events were recorded by a biological signal processing system (Chengdu Instruments Ltd, China). […]

Substance: YXEGTFTSDYSIYLDKQAAXEFVNWLLAGGPSSGAPPPSKRRQRRKKRGY-NH2 (Y[Aib]EGTFTSDYSIYLDKQAA[Aib]EFVNWLLAGGPSSGAPPPSKRRQRRKKRGY-NH2) [DA5, No. 12; X=aminoisobutyric acid]
- synapse loss / synaptic densities in the cortex [1]: protected from synapse loss
- levels of L-LTP post neuronal stimuli ([2]; APP/PS1 mice, FIG. 9b): maintained high levels of L-LTP post neuronal stimuli
- depression of L-LTP in the hippocampus ([2]; APP/PS1 transgenic mice, pre-treatment, FIG. 9a): able to reverse the depression of L-LTP
